# Reference: ChEMBL document CHEMBL5726083, “Perfluorinated cyclopropyl fused 1,3-oxazin-2-amine compounds as beta-secretase inhibitors and methods of use” (2017)
# pIC50: −log10 of the molar value.
# Target: Cathepsin D (Homo sapiens, UniProt P07339)
# Assay: In Vitro Enzymatic FRET Assay: Recombinant Cat D was expressed in CHO cells. The assay buffer for CathepsinD is 0.05 M citrate pH 3.5, 10% DMSO final, 5 mM CHAPS. The Cat D enzyme (9 nM) is pre-incubated for one hour with inhibitors, typically in about 1 uL of DMSO according to a serial dilution, is added thereto. The assays are effectively started by the addition of different FRET substrates (20 nM for Cat D) and the combination is incubated for one hour. The FRET assay is terminated with by addition of Tris buffer, which raises the pH to neutrality, and the fluorescence is determined. The FRET substrate is a peptide with commercially available fluorophore and quencher, on opposite sides of the BACE cleavage site. […] Proteolytic cleavage of the FRET substrate releases quenching of fluorescence (Cat D excitation 500 nm and emission 580 nm).
# Assay type: cell-based
# Cathepsin D, sequence (P07339 65-162 limits assumed): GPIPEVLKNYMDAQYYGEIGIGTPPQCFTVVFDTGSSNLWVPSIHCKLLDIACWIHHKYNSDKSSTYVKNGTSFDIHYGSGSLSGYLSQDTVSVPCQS
# Cathepsin D, sequence (P07339 169-412 limits assumed): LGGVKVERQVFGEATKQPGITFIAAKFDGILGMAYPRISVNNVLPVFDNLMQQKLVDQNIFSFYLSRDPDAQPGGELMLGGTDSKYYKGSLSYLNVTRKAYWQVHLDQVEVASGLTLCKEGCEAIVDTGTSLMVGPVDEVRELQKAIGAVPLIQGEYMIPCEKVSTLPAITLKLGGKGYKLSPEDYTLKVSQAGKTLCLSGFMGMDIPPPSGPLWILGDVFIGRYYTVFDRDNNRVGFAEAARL
row,SMILES,pIC50
1,Cc1cc(OC(F)F)cnc1C(=O)Nc1ccc(Cl)c(C2(C(F)F)N=C(N)O[C@@H]3C[C@@H]32)c1 (some centres not stated),3.02
2,NC1=N[C@](CF)(c2cc(NC(=O)c3ccc(Cl)cn3)cc(F)c2F)[C@H]2CC2O1 (mixture of isomers),3.64
